Values quoted from earlier work as cited in US20220160619A1, “Effervescent Drug Formulations” (Complete Medical Solutions, LLC, priority 2020, published 2022).

Conditions: long-term metformin therapy in addition to dietary management

diabetic patients with cobalamin malabsorption: 30%
SMILES: CN(C)C(=N)N=C(N)N [metformin]
